In publication PMC6061858 (2018) one finds Kd and binding data, which are given here for 2 compounds.

Experiment [1] relates to metY 55 nt (metY SAM-V riboswitch) (RNA, riboswitch) AGGCGCAUUUGAACUGUAUUGUACGCCUUGCAUAAAGCAAAAGUACUAAAAAAGG
The experiment is described as follows: ITC. The following applies: 100 mM KCl, 10 mM MgCl2, 40 mM HEPES pH 7.2, 298 K.

The test system of experiment [2] is bhmT 52 nt (SAM-52) (RNA, riboswitch) GGGCAGUUGAACCAUAUUGUGCGCCCUGCAUUUGCUUAAGCACUAAAAAGGA
The experiment is described as follows: ITC. The following applies: 100 mM KCl, 10 mM MgCl2, 40 mM HEPES pH 7.2, 298 K.

The subject of experiment [3] is metY A50Pur (RNA, riboswitch, purine at 50 (replaces A50)) AGGCGCAUUUGAACUGUAUUGUACGCCUUGCAUAAAGCAAAAGUACUAAAAAAGG
The experiment is described as follows: ITC. The following applies: 100 mM KCl, 10 mM MgCl2; 40 mM HEPES pH 7.2, 298 K.

Experiment [4] relates to bhmT A50Pur (RNA, riboswitch, purine at A50 (metY numbering; position 47 of strand)) GGGCAGUUGAACCAUAUUGUGCGCCCUGCAUUUGCUUAAGCACUAAAAAGGA
Nature of the experiment: ITC. As to conditions: 100 mM KCl, 10 mM MgCl2; 40 mM HEPES pH 7.2, 298 K.

For experiment [5], the system named is bhmT A50Ino (RNA, riboswitch, inosine at A50 (metY numbering; position 47 of strand)) GGGCAGUUGAACCAUAUUGUGCGCCCUGCAUUUGCUUAAGCACUAAAAAGGA
The experiment is described as follows: ITC. The following applies: 100 mM KCl, 10 mM MgCl2; 40 mM HEPES pH 7.2, 298 K.

Experiment [6] concerns metY A50Inosine (RNA, riboswitch, inosine at 50 (replaces A50)) AGGCGCAUUUGAACUGUAUUGUACGCCUUGCAUAAAGCAAAAGUACUAAAAAAGG
The experiment is described as follows: ITC. The following applies: 100 mM KCl, 10 mM MgCl2; 40 mM HEPES pH 7.2, 298 K; 200 µM SAM titrated into 15 µM RNA.

Experiment [7] deals with metY U47Isocytidine (RNA, riboswitch, isocytidine at 47 (replaces U47)) AGGCGCAUUUGAACUGUAUUGUACGCCUUGCAUAAAGCAAAAGUACUAAAAAAGG
The experiment is described as follows: ITC. As to conditions: 100 mM KCl, 10 mM MgCl2; 40 mM HEPES pH 7.2, 298 K; 200 µM SAM titrated into 15 µM RNA.

The test system of experiment [8] is bhmT U47Isocytidine (RNA, riboswitch, isocytidine at U47 (metY numbering; position 44 of strand)) GGGCAGUUGAACCAUAUUGUGCGCCCUGCAUUUGCUUAAGCACUAAAAAGGA
The experiment is described as follows: ITC. As to conditions: 100 mM KCl, 10 mM MgCl2; 40 mM HEPES pH 7.2, 298 K; 200 µM SAM titrated into 15 µM RNA.

Experiment [9] relates to bhmT U9 4-thiouridine (RNA, riboswitch, 4-thiouridine at U9 (metY numbering; position 7 of strand)) GGGCAGUUGAACCAUAUUGUGCGCCCUGCAUUUGCUUAAGCACUAAAAAGGA
Nature of the experiment: ITC. The following applies: 100 mM KCl, 10 mM MgCl2; 40 mM HEPES pH 7.2, 298 K; 200 µM SAM titrated into 15 µM RNA.

Experiment [10] deals with bhmT U20 4-thiouridine (RNA, riboswitch, 4-thiouridine at U20 (metY numbering; position 18 of strand)) GGGCAGUUGAACCAUAUUGUGCGCCCUGCAUUUGCUUAAGCACUAAAAAGGA
The experiment is described as follows: ITC. As to conditions: 100 mM KCl, 10 mM MgCl2; 40 mM HEPES pH 7.2, 298 K; 200 µM SAM titrated into 15 µM RNA.

The subject of experiment [11] is metY 53 nt (RNA, riboswitch) AGGCGCAUUUGAACUGUAUUGUACGCCUUGCAUAAAGCAAAAGUACUAAAAAA
Nature of the experiment: ITC. The following applies: 100 mM KCl, 10 mM MgCl2; 40 mM HEPES pH 7.2, 298 K; 200 µM SAM titrated into 15 µM RNA.

For experiment [12], the system named is bhmT 49 nt (SAM-49) (RNA, riboswitch) GGGCAGUUGAACCAUAUUGUGCGCCCUGCAUUUGCUUAAGCACUAAAAA
Nature of the experiment: ITC. The following applies: 100 mM KCl, 10 mM MgCl2; 40 mM HEPES pH 7.2, 298 K; 200 µM SAM titrated into 15 µM RNA.

Experiment [13] concerns metY 53 nt, 5-bromocytosine (crystallized) (RNA, riboswitch, 5-bromocytidine at 4) AGGCGCAUUUGAACUGUAUUGUACGCCUUGCAUAAAGCAAAAGUACUAAAAAA
The experiment is described as follows: X-ray crystallography (2.5 Å). As to conditions: co-crystal, space group P4_122.

[14] abbreviates: 200-250 µM SAH titrated into 15 µM RNA.

As for `C[S+](CC[C@H](N)C(=O)O)C[C@H]1O[C@@H](n2cnc3c(N)ncnc32)[C@H](O)[C@@H]1O` (stereo partly drawn), the Kd in [1] was determined as 4.37 ± 0.21 µM; in [2], 0.50 ± 0.08 µM; in experiment [3] it was 14.7 ± 1.8 µM; in [4], 0.90 ± 0.10 µM; in experiment [5], 16.8 ± 2.6 µM. Besides, the binding result is reported as “weak” in [6]; “no” in experiment [7]; “no” in experiment [8]; “no” in experiment [9]; “weak” in [10]; “no” in [11]. The results for the binding result in [12] and in experiment [13] were “no” and “yes”, respectively.

For `Nc1ncnc2c1ncn2[C@@H]1O[C@H](CSCC[C@H](N)C(=O)O)[C@@H](O)[C@H]1O`, the binding entry in experiment [1] (setting [14]) and in [2] (setting [14]) was “no” each time.

In general, Kd refers to the free concentration of one partner at which half of the binding sites on the other are occupied at equilibrium, for simple one-to-one binding. Low values mean higher affinity, high ones lower affinity.
